Legend:
XG1 HMCL = experiment: Apoptosis induction, Annexin V APC staining by flow cytometry, XG1; format: cell-based, human; conditions: XG1, UNC0379 5 mM (so in the source)
Description: (§1) Apoptosis induction was analyzed with Annexin V APC staining by flow cytometry. The shown data is one representative experiment and mean values±SD of 3 separate experiments. Statistical analysis was done with a paired t-test.

MM cells = experiment: DNA repair foci (53BP1) immunofluorescence, combination with melphalan; conditions: sub-lethal dose of UNC0379 combined with melphalan, P<0.001
Description: At least 300 cells were counted for each treatment group.
After deposition on slides using a Cytospin centrifuge, cells were fixed with 4% PFA, permeabilized with 0.5% Triton in PBS and saturated with 5% bovine milk in PBS. […] Slides were washed and mounted with Vectashield and 1% DAPI. Images and fluorescence were captured with a ZEISS Axio Imager Z2 microscope (X63 objective) (company, town state), analyzed with Metafer (version3.6, company, town state) and ImageJ softwares. The number of 53BP1 and γH2AX foci was counted in at least 300 nuclei.

XG7 HMCL = experiment: Apoptosis induction, Annexin V APC staining by flow cytometry, XG7; format: cell-based, human; conditions: XG7, UNC0379 5 mM (so in the source)
Description: as §1

non-myeloma cells = format: cell-based, human; conditions: 1, 2.5 and 5 μM, day 4, patient mononuclear cell cultures, n=8
Description: […]. At day 4 of culture, the viability and total cell counts were assessed and the percentage of CD138 viable plasma cells was determined by flow cytometry. Results are median values of the numbers of myeloma cells in the culture wells. The values were compared with a Wilcoxon test for pairs.
[…]. MMCs cytotoxicity was evaluated using anti-CD138-PE mAb (Immunotech, Marseille, France) as described^18,35. Results were analyzed using GraphPad Prism (http://www.graphpad.com/scientific-software/prism/).

U2OS cells = experiment: Immunoblot analysis of DNA damage and checkpoint markers in U2OS cells treated with UNC0379; format: cell-based, human
Description: For immunoblot analysis, cells washed with phosphate-buffered saline (PBS) were lysed in Laemmli buffer. After measuring protein quantity by Bradford, equal amounts of protein were resolved by SDS-PAGE, transferred to a nitrocellulose membrane and probed with one of the following antibodies: anti-SETD8 (1:1000, Cell Signaling Technology), anti-H4K20me1 (1:1000 cell signaling) anti-phospho-H2A.X-Ser139 (1:1000, millipore). Membranes were then incubated with the appropriate horseradish peroxidase (HRP)-conjugated secondary antibodies. The immunoreactive bands were detected by chemiluminescence.

Compound: COc1cc2nc(N3CCCC3)nc(NCCCCCN3CCCC3)c2cc1OC [UNC0379]
- annexin-V positive cells (XG1 HMCL): 87%
- accumulation of DNA double strand breaks (53BP1 foci) (MM cells): significantly synergizes with melphalan
- annexin-V positive cells (XG7 HMCL): 63%
- toxicity on the non-myeloma cells (non-myeloma cells): without significant toxicity
- P53 level (U2OS cells): stabilization of P53
- phosphorylation of CHK1 (DNA damage checkpoint activation) (U2OS cells): phosphorylation of CHK1
- γH2A.X (marker of DNA damage) (U2OS cells): increase in γH2A.X

Source: patent publication US20200330467A1, “METHOD AND PHARMACEUTICAL COMPOSITIONS FOR THE TREATMENT OF MULTIPLE MYELOMA” (priority 2016, published 2020)
